From patent US20150193575A1, “SYSTEMS AND METHODS OF SELECTING COMPOUNDS WITH REDUCED RISK OF CARDIOTOXICITY” (The Governors of the University of Alberta, priority 2013, published 2015)

Key:
[1] = target: hERG1 potassium channel (Homo sapiens, UniProt Q12809); experiment: in vitro
Procedure: Mammalian cells expressing the hERG1 potassium channel were dispensed into 384-well planar arrays and hERG tail-currents were measured by whole-cell voltage-clamping. A range of concentrations (TBD) of the test compounds were then added to the cells and a second recording of the hERG current was made. The percent change in hERG current was calculated.
The experiments were performed on an IonWorks™ FIT instrument (Molecular Devices Corporation), which automatically performs electrophysiology measurements in 48 single cells simultaneously in a specialised 384-well plate (PatchPlate™). All cell suspensions, buffers and test compound solutions were at room temperature during the experiment.
The cells used were Chinese hamster ovary (CHO) cells stably transfected with hERG (cell-line obtained from Cytomyx, UK). A single-cell suspension was prepared in extracellular solution (Dulbecco's phosphate buffered saline with calcium and magnesium pH 7-7.2) and aliquots were added automatically to each well of a PatchPlate™. The cells were then positioned over a small hole at the bottom of each well by applying a vacuum beneath the plate to form an electrical seal. The vacuum was applied through a single compartment common to all wells which were filled with intracellular solution (buffered to pH 7.2 with HEPES). The resistance of each seal was measured via a common ground-electrode in the intracellular compartment and individual electrodes placed into each of the upper wells.
Electrical access to the cell was then achieved by circulating a perforating agent, amphotericin, underneath the PatchPlate™ and then measuring the pre-compound hERG current. An electrode was positioned in the extracellular compartment and a holding potential of −80 mV for 15 sec was applied. The hERG channels were then activated by applying a depolarising step to +40 mV for 5 sec and then clamped at −50 mV for 4 sec to elicit the hERG tail current, before returning to −80 mV for 0.3 s.
A test compound was then added automatically to the upper wells of the PatchPlate™ from a 96-well microtitre plate containing a range of concentrations of each compound. Solutions were prepared by diluting DMSO solutions of the test compound into extracellular buffer. The test compound was left in contact with the cells for 300 sec before recording currents using the same voltage-step protocol as in the pre-compound scan. […] Each concentration was tested in 4 replicate wells on the PatchPlate™.
Post-compound currents were then expressed as a percentage of pre-compound currents and plotted against concentration for each compound. Where concentration-dependent inhibition is observed, the data are fitted to the following equation and an IC50 value calculated: […]
An IC50 was reported if concentration-dependent inhibition is observed. The standard error (SE) of the IC50 model and the number of data-points used to determine IC50 was also reported.

[2] = target: T1, hERG channel (Homo sapiens, UniProt Q12809); experiment: Predictor hERG fluorescence polarization assay
Procedure: Compounds that bind to the hERG channel proteins were identified by their ability to displace the tracer (Predictor hERG Tracer Red) and decrease the fluorescence polarization. The Tracer Red ligand was stored in 100% DMSO and diluted to 8 nM in assay buffer (50 mM Tris-HCl, 1 mM MgCl2, 10 mM KCl, 0.05% Pluronic F127, pH 7.4, 4° C.) on the day of the experiment. Test samples and controls were diluted in assay buffer to 16 concentrations with half-log intervals. Cell membranes were removed from the −80° C. freezer and placed on ice after defrosting. Membranes working solution protein concentration was 0.3 mg/mL. […] IC50 values were derived by fitting a sigmoidal function to concentration-response data, where concentration-dependent inhibition was observed. All IC50 data were calculated and analyzed using GraphPad Prism 6 (GraphPad Software).

[3] = target: T1, hERG channel; experiment: Automated patch clamp (IonFlux) on AC10 cardiomyocytes stably expressing hERG; settings: for effect on hERG tail currents / electrophysiology (in words): AC10 cardiomyocytes
[4] = clinical trial, placed on clinical hold by the FDA; cited from earlier work
[5] = target: hERG1 (Homo sapiens, UniProt Q12809); experiment: FluxOR potassium channel assay in HEK 293 cells stably expressing hERG1
Chain of hERG1 (Q12809 whole entry): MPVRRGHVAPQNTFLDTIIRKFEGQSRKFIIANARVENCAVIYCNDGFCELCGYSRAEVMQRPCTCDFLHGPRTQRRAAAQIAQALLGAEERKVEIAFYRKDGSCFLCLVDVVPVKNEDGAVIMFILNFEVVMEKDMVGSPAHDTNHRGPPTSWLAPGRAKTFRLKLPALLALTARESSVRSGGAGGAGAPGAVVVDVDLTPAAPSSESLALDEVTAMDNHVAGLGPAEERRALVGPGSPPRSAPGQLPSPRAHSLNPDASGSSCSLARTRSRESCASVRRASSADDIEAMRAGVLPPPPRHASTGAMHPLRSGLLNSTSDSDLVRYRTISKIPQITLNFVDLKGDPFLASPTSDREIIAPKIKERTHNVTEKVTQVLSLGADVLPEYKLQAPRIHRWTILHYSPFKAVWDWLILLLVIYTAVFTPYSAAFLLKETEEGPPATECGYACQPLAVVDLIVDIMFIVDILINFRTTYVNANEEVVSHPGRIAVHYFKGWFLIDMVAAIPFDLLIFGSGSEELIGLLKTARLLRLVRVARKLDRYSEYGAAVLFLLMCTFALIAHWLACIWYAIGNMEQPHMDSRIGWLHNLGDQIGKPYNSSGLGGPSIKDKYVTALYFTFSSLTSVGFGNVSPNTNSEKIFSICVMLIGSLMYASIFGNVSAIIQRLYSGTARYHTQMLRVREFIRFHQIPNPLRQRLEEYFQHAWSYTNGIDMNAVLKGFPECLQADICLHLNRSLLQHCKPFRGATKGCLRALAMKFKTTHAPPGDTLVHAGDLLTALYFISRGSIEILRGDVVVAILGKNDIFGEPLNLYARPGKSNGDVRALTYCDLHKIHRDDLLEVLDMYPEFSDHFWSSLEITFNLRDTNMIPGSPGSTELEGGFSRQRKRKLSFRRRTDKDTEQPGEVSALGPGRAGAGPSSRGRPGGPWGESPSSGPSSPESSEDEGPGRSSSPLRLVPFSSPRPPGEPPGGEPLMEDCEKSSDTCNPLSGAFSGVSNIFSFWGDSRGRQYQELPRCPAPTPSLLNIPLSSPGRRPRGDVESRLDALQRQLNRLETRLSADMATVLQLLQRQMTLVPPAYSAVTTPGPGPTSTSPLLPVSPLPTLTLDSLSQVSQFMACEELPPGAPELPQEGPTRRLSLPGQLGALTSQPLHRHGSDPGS
Procedure: The FluxOR™ assay monitors the permeability of potassium channels to thallium (Tl^+) ions. When thallium is added to the extracellular solution with a stimulus to open channels, thallium flows down its concentration gradient into the cells, and channel or transporter activity is detected with a proprietary indicator dye that increases in cytosolic fluorescence. Accordingly, the fluorescence reported in the FluxOR™ system is an indicator of any ion channel activity or transport process that allows thallium into cells.
Briefly, FluxOR™ loading buffer was made from Hank's Balanced Saline Solution (HBSS) buffered with 20 mM HEPES and pH adjusted with NaOH to 7.4. Powerload™ concentrate and water-soluble probenecid were used as directed by the kit to enhance the dye solubility and retention, respectively. Media were removed from the cell plates manually, and 20 of loading buffer containing the FluxOR™ dye mix was applied to each well. Once inside the cell, the nonfluorescent AM ester form of the FluxOR™ dye was cleaved by endogenous esterases into a thallium-sensitive indicator. The dye was loaded for 60 min at room temperature and then removed manually. […] To each well 20 μL stimulation buffer was added and fluorescence measures were done every 1 sec for a total time of 180 sec.

Chain of hERG1 potassium channel (Q12809 whole entry): as above
T1 sequence (Q12809 whole entry): as above

## CC(=O)Oc1ccccc1C(=O)O [Aspirin, acetyl salicylic acid]
[1]; human
  inhibition at 300 sec, 0.0032 µM: -2.97%
  inhibition at 300 sec, 0.016 µM: -3.09%
  inhibition at 300 sec, 0.08 µM: -21%
  inhibition at 300 sec, 0.4 µM: -5.88%
  inhibition at 300 sec, 2 µM: -3.71%
  inhibition at 300 sec, 10 µM: -0.546%

## COc1nc(N)nc2c1ncn2[C@@H]1O[C@H](COP(=O)(N[C@@H](C)C(=O)OCC(C)(C)C)Oc2cccc3ccccc23)[C@@H](O)[C@@]1(C)O (some centres unmarked) [BMS986094]
[2]
  IC50: 3.75 nM
[3]
  IC50: 266 nM

## COc1nc(N)nc2c1ncn2C1O[C@H](COP(=O)(N[C@H](C)C(=O)OCC(C)(C)C)Oc2cccc3ccccc23)[C@@H](O)[C@@]1(C)O (stereo partly drawn) [BMS-986094, (2R)-neopentyl 2-(((((2R,3R,4R)-5-(2-amino-6-methoxy-9H-purin-9-yl)-3,4-dihydroxy-4-methyltetrahydrofuran-2-yl)methoxy)(naphthalen-1-yloxy)phosphoryl)amino)propanoate]
[1]; CHO cells stably transfected with hERG
  inhibition of the potassium channel (in words): inhibit the potassium channel
[1]; human
  inhibition at 300 sec, 0.0032 µM: 18.2%
  inhibition at 300 sec, 0.016 µM: -4.94%
  inhibition at 300 sec, 0.08 µM: -8.97%
  inhibition at 300 sec, 0.4 µM: -5.33%
  inhibition at 300 sec, 10 µM: 23.3%
[4]
  effects on QT interval prolongation in patients (in words): nine patients in a clinical trial had to be hospitalized and one of them died
[2]
  IC50: 3 nM
[5]
  block of conductance of the potassium channel (in words): block conductance of the potassium channel
[3]
  IC50: 266 nM
  effect on hERG tail currents / electrophysiology (in words): potently blocks hERG tail currents

## Nc1nc2c(ncn2[C@@H]2O[C@H](CO)[C@@H](O)[C@H]2O)c(=O)[nH]1 [Guanosine, guanosine]
[1]; human
  inhibition at 300 sec, 0.0032 µM: 0.711%
  inhibition at 300 sec, 0.016 µM: 6.12%
  inhibition at 300 sec, 0.08 µM: -3.46%
  inhibition at 300 sec, 0.4 µM: 26.3%
  inhibition at 300 sec, 2 µM: 0.453%
  inhibition at 300 sec, 10 µM: 5.54%
[2]
  displacement of the hERG-bound dye (in words): no detectable effect on hERG blockage
[3]
  effect on hERG tail currents / electrophysiology (in words): none of BMS-986094 metabolites demonstrates either hERG cavity binding or electrophysiology changes

## O=c1[nH]c2ccccc2n1C1CCN(CCCC(c2ccc(F)cc2)c2ccc(F)cc2)CC1 [Pimozide]
[1]; human
  inhibition at 300 sec, 0.00032 µM: 2.29%
  inhibition at 300 sec, 0.0016 µM: 4.56%
  inhibition at 300 sec, 0.008 µM: 5.6%
  inhibition at 300 sec, 0.04 µM: 25.1%
  inhibition at 300 sec, 0.2 µM: 9.44%
  inhibition at 300 sec, 1 µM: 83.2%

## CC(C)NCC(O)c1ccc(NS(C)(=O)=O)cc1 (centres unmarked) [Sotalol]
[1]; human
  inhibition at 300 sec, 0.0032 µM: 1.69%
  inhibition at 300 sec, 0.016 µM: -0.73%
  inhibition at 300 sec, 0.08 µM: 20.4%
  inhibition at 300 sec, 0.4 µM: 10.9%
  inhibition at 300 sec, 2 µM: 1.72%
  inhibition at 300 sec, 10 µM: 0.95%

## CS(=O)(=O)c1ccc(C2=C(c3ccccc3)C(=O)OC2)cc1 [rofecoxib]
[2]
  IC50: 5830 nM
[3]
  IC50: 15000 nM
